Reference: US8912202B2, “N-(benzimimdazol-2-yl)-cyclopropane carboxamides as lysophosphatidic acid antagonists” (Merck Patent GmbH, priority 2011, dated 2014)
pIC50: −log10 of the molar value.

Target: T1, LPA2R (Homo sapiens, UniProt Q9HBW0)
T1 construct: expressed in transfected cells; host or cells: U2OS
Experiment: LPA2R-Calciumflux assay (FLIPR, intracellular calcium mobilisation after LPA)
Type: cell-based
Conditions: U2OS cells recombinant expressing LPA2R; antagonism of LPA-induced calcium flux; racemate of the two trans enantiomers unless marked enantiomer
Source text: The assay detects intra cellular calcium which is generated by cells upon activation of the LPA2 receptor by its ligand LPA. This transient calcium mobilization can be monitored using a commercial calcium detection kit (e.g. from Molecular Devices). The main component of such a kit is a dye, which becomes fluorescent when calcium is present—a transient fluorescence signal after addition of a ligand to a test well are the result. Readers like the FLIPR (Molecular Devices) can be used to monitor such transient “Ca-flux” signals.
The signals are calculated according to peak maximum minus base line.
Compounds which are antagonists of LPA lead to a decreased mobilisation of intracellular calcium and thus to a lower signal. The assay is performed in microplates (384 wells per plate).
LPA2R-Calciumflux Assay Protocol
The assay is run according to the following procedure:
50 uL seed cells (10000 cells/well in DMEM buffer)
• Incubate 24 h at 37° C., 10% CO2 • aspirate medium 50 uL add calcium dye 1×HBSS/HEPES buffer • incubate 1 h at 37° C. (“loading”) • equilibrate 10 min at RT 5 uL add compounds in HEPES buffer • shake 10 sec. at 1000 rpm • incubate 15 min at RT 20 uL add LPA (in the FLIPR Tetra) in Krebs-buffer/BSA & measurement
The cells are seeded in DMEM buffer (DMEM, 10% FCS, 10 mM HEPES, 1% Pen/Strep).
Dye loading is done in HBSS/HEPES buffer (100 mL 10×HBSS+20 mL 1M HEPES+880 mL water, pH 7.4)
The LPA is added in Krebs/BSA buffer (120 mM NaCl, 5 mM KCl, 0.62 mM MgSO4, 1.8 mM CaCl2, 10 mM HEPES, 6 mM D(+)-Glucose, 0.2% BSA, pH 7.4).
The compounds are pre-diluted in HEPES buffer (20 mM, pH 7.4), whereby the final DMSO content in the assay is kept at 1%. The compounds are pre-diluted in order to generate dose response series on the microplates. The dose response series consist of 10 concentrations for each compound from 30 uM final to 1 nM final. From all compound wells the resulting signals are referred to control wells (located on each plate besides the compound wells) in terms of % activity.
From these % activity values—along with the corresponding compound concentrations—IC50 values are fitted for each compound using standard fitting programs such as Graphpad Prism. Here the method “log(inhibitor) vs. response—Variable slope” is used.

T1 sequence (Q9HBW0 whole entry): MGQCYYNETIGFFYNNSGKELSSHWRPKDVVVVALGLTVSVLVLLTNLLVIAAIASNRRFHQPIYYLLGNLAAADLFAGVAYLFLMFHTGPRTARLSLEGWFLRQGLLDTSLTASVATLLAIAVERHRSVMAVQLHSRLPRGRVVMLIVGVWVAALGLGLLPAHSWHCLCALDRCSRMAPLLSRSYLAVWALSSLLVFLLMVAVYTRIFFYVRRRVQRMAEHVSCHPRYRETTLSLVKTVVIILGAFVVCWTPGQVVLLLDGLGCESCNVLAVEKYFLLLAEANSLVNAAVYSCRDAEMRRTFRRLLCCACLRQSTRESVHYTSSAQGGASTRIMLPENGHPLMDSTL

Structure (SMILES)	pIC50
CC(C)(C)c1ccc(C2CC2C(=O)Nc2nc3ccccc3[nH]2)cc1 (racemic) [2-(4-tert-Butyl-phenyl)-cyclopropane-carboxylic acid (1H-benzoimidazol-2-yl)-amide]	< 5.00
Cn1c(NC(=O)C2CC2c2ccccc2)nc2ccccc21 (racemic) [2-Phenyl-cyclopropane-carboxylic acid (1-methyl-1H-benzoimidazol-2-yl)-amide]	< 5.00
CN(C(=O)C1CC1c1ccccc1)c1nc2ccccc2[nH]1 (racemic) [2-Phenyl-cyclopropane-carboxylic acid (1H-benzoimidazol-2-yl)-methyl-amide]	5.00 to 6.00
O=C(Nc1n[nH]c2ccccc12)C1CC1c1ccccc1 (racemic) [2-Phenyl-cyclopropane-carboxylic acid (1H-indazol-3-yl)-amide]	< 5.00
O=C(Nc1nc2ccncc2[nH]1)C1CC1c1ccccc1 (racemic) [2-Phenyl-cyclopropane-carboxylic acid (3H-imidazo[4,5-c]pyridin-2-yl)-amide]	< 5.00
NCc1ccc2[nH]c(NC(=O)C3CC3c3ccccc3)nc2c1 (racemic) [2-Phenyl-cyclopropane-carboxylic acid (5-aminomethyl-1H-benzoimidazol-2-yl)-amide]	5.00 to 6.00
O=C(Nc1nc2cncnc2[nH]1)C1CC1c1ccccc1 (racemic) [2-Phenyl-cyclopropane-carboxylic acid (9H-purin-8-yl)-amide]	5.00 to 6.00
CCCS(=O)(=O)c1ccc2[nH]c(NC(=O)C3CC3c3ccccc3)nc2c1 (racemic) [2-Phenyl-cyclopropane-carboxylic acid [5-(propane-1-sulfonyl)-1H-benzoimidazol-2-yl]-amide]	5.00 to 6.00
O=C(Nc1nc2c(NCC3CCN(Cc4ccccc4)CC3)cccc2[nH]1)C1CC1c1ccccc1 (racemic) [2-Phenyl-cyclopropane-carboxylic acid {4-[(1-benzyl-piperidin-4-ylmethyl)-amino]-1H-benzoimidazol-2-yl}-amide]	5.00 to 6.00
COC(=O)c1cccc2[nH]c(NC(=O)C3CC3c3ccccc3)nc12 (racemic) [2-[(2-Phenyl-cyclopropane-carbonyl)-amino]-1H-benzoimidazole-4-carboxylic acid methyl ester]	6.00 to 7.00
O=C(O)c1ccc2[nH]c(NC(=O)C3CC3c3ccccc3)nc2c1 (racemic) [2-[(2-Phenyl-cyclopropane-carbonyl)-amino]-1H-benzoimidazole-5-carboxylic acid]	< 5.00
Cc1ccc(C2CC2C(=O)Nc2nc3ccccc3[nH]2)cc1 (racemic) [2-p-Tolyl-cyclopropane-carboxylic acid (1H-benzoimidazol-2-yl)-amide]	5.00 to 6.00
CC(C)(C)OC(=O)NCc1ccc2[nH]c(NC(=O)C3CC3c3ccccc3)nc2c1 (racemic) [{2-[(2-Phenyl-cyclopropane-carbonyl)-amino]-1H-benzoimidazol-5-ylmethyl}-carbamic acid tert-butyl ester]	6.00 to 7.00

Second part, the compound after the results:

pIC50	Structure (SMILES)
7.00 to 8.00	O=C(Nc1nc2ccccc2[nH]1)C1CC1c1cc(Br)ccc1F (racemic) [2-(5-Bromo-2-fluoro-phenyl)-cyclopropane-carboxylic acid (1H-benzoimidazol-2-yl)-amide]
7.00 to 8.00	O=C(Nc1nc2ccccc2[nH]1)C1CC1c1ccccc1 (racemic) [2-Phenyl-cyclopropane-carboxylic acid (1H-benzoimidazol-2-yl)-amide]
7.00 to 8.00	O=C(Nc1nc2cccnc2[nH]1)C1CC1c1ccccc1 (racemic) [2-Phenyl-cyclopropane-carboxylic acid (3H-imidazo[4,5-b]pyridin-2-yl)-amide]
6.00 to 7.00	O=C(Nc1nc2c(Cl)cc(Cl)cc2[nH]1)C1CC1c1ccccc1 (racemic) [2-Phenyl-cyclopropane-carboxylic acid (4,6-dichloro-1H-benzoimidazol-2-yl)-amide]
7.00 to 8.00	Nc1cccc2[nH]c(NC(=O)C3CC3c3ccccc3)nc12 (racemic) [2-Phenyl-cyclopropane-carboxylic acid (4-amino-1H-benzoimidazol-2-yl)-amide]
7.00 to 8.00	O=C(Nc1nc2ccnc(Cl)c2[nH]1)C1CC1c1ccccc1 (racemic) [2-Phenyl-cyclopropane-carboxylic acid (4-chloro-3H-imidazo[4,5-c]pyridin-2-yl)-amide]
7.00 to 8.00	O=C(Nc1nc2c([N+](=O)[O-])cccc2[nH]1)C1CC1c1ccccc1 (racemic) [2-Phenyl-cyclopropane-carboxylic acid (4-nitro-1H-benzoimidazol-2-yl)-amide]
6.00 to 7.00	O=C(Nc1nc2c([N+](=O)[O-])cc(C(F)(F)F)cc2[nH]1)C1CC1c1ccccc1 (racemic) [2-Phenyl-cyclopropane-carboxylic acid (4-nitro-6-trifluoromethyl-1H-benzoimidazol-2-yl)-amide]
6.00 to 7.00	O=C(Nc1nc2cc(Cl)c(Cl)cc2[nH]1)C1CC1c1ccccc1 (racemic) [2-Phenyl-cyclopropane-carboxylic acid (5,6-dichloro-1H-benzoimidazol-2-yl)-amide]
7.00 to 8.00	Cc1cc2nc(NC(=O)C3CC3c3ccccc3)[nH]c2cc1C (racemic) [2-Phenyl-cyclopropane-carboxylic acid (5,6-dimethyl-1H-benzoimidazol-2-yl)-amide]
7.00 to 8.00	N#Cc1ccc2nc(NC(=O)C3CC3c3ccccc3)[nH]c2c1 (racemic) [2-Phenyl-cyclopropane-carboxylic acid (5-cyano-1H-benzoimidazol-2-yl)-amide]
7.00 to 8.00	CCc1ccc2[nH]c(NC(=O)C3CC3c3ccccc3)nc2c1 (racemic) [2-Phenyl-cyclopropane-carboxylic acid (5-ethyl-1H-benzoimidazol-2-yl)-amide]
7.00 to 8.00	COc1ccc2[nH]c(NC(=O)C3CC3c3ccccc3)nc2c1 (racemic) [2-Phenyl-cyclopropane-carboxylic acid (5-methoxy-1H-benzoimidazol-2-yl)-amide]
> 8.00	O=C(Nc1nc2cc(Br)cnc2[nH]1)C1CC1c1ccccc1 (racemic) [2-Phenyl-cyclopropane-carboxylic acid (6-bromo-3H-imidazo[4,5-b]pyridin-2-yl)-amide]
7.00 to 8.00	O=C(Nc1nc2cc(Cl)ccc2[nH]1)C1CC1c1ccccc1 (racemic) [2-Phenyl-cyclopropane-carboxylic acid (6-chloro-1H-benzoimidazol-2-yl)-amide]
6.00 to 7.00	Cc1ccc2nc(NC(=O)C3CC3c3ccccc3)[nH]c2c1 (racemic) [2-Phenyl-cyclopropane-carboxylic acid (6-methyl-1H-benzoimidazol-2-yl)-amide]
7.00 to 8.00	O=C(Nc1nc2cc(C(F)(F)F)ccc2[nH]1)C1CC1c1ccccc1 (racemic) [2-Phenyl-cyclopropane-carboxylic acid (6-trifluoromethyl-1H-benzoimidazol-2-yl)-amide]
6.00 to 7.00	Cc1cccc2nc(NC(=O)C3CC3c3ccccc3)[nH]c12 (racemic) [2-Phenyl-cyclopropane-carboxylic acid (7-methyl-1H-benzoimidazol-2-yl)-amide]
7.00 to 8.00	Cc1cccc(C2CC2C(=O)Nc2nc3ccccc3[nH]2)c1 (racemic) [2-m-Tolyl-cyclopropane-carboxylic acid (1H-benzoimidazol-2-yl)-amide]
